This passage reports IC50, AC50 and EC50 results from ChEMBL document CHEMBL1201862, “PubChem BioAssay data set” (2004).

The source made the active and inactive calls.

Assay [1] concerns the target Protein Rev (Human immunodeficiency virus type 1 group M subtype B (isolate HXB2)(HIV-1), UniProt P04618). Kind of assay: blockers of HIV Rev/RRE RNA complex – biochemical, fluorescence polarization, HIV-1, dose response (AID 434976). Also noted: species or system Human immunodeficiency virus 1.
Assay [2] concerns the target Female germline-specific tumor suppressor gld-1 (Caenorhabditis elegans, UniProt Q17339). Kind of assay: blockers of GLD-1/TGE RNA complex formation – biochemical, fluorescence polarization, C. elegans, dose response (AID 2802).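 Also: fluorescence polarization of labeled TGE RNA bound by purified gld-1 protein.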
The target of assay [3] is Keap1/Nrf2 (Homo sapiens, UniProt Q14145). The experiment in a line: disruptors of Keap1 binding to Nrf2 peptide – biochemical, fluorescence polarization, cherry-picked samples, dose response (AID 588683).
Sequence of Keap1/Nrf2 (Q16236 whole entry): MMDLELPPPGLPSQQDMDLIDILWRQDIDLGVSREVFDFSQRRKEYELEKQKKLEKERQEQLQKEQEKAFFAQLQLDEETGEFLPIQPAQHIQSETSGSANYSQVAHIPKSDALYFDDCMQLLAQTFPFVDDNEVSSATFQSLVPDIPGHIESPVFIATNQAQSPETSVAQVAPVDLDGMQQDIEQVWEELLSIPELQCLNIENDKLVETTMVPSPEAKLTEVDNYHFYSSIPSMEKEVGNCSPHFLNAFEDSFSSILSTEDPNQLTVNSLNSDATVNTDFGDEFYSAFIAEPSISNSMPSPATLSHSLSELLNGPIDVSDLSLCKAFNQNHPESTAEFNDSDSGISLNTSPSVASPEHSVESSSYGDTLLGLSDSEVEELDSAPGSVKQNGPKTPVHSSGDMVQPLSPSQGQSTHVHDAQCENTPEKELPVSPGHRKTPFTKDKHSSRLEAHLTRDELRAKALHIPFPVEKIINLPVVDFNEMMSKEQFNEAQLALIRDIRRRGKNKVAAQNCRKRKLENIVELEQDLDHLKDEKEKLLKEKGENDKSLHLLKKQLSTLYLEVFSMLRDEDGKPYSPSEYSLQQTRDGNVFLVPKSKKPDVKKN
Sequence of Keap1/Nrf2 (Q14145 whole entry): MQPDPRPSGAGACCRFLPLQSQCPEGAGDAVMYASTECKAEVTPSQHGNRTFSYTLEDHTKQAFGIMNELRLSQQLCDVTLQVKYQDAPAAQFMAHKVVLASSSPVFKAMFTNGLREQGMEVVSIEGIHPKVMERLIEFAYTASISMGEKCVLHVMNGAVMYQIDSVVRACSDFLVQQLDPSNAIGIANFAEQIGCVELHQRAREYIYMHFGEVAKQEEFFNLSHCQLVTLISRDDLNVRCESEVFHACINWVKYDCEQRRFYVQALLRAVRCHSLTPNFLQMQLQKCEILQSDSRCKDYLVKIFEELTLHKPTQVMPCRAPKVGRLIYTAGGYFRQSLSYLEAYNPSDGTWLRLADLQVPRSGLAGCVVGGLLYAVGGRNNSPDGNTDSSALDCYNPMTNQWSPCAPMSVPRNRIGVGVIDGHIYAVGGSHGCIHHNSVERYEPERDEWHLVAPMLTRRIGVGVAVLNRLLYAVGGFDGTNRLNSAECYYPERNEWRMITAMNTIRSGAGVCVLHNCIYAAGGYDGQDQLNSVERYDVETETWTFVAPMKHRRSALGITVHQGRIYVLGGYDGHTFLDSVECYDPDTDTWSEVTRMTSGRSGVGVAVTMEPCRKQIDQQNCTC
Assay [4] has as its target UDP-galactopyranose mutase (Mycobacterium tuberculosis, UniProt P9WIQ1). Kind of assay: Inhibitors of Mycobacterium tuberculosis UDP-galactopyranose mutase (UGM) enzyme Measured in Biochemical System Using Plate Reader - 2105-02_Inhibitor_Dose_CherryPick_Activity. [Related pubchem assays (depositor defined):AID504439].
For assay [5], the target named is ORF 73 (Human herpesvirus 8, UniProt O40947). The experiment in a line: KSHV LANA DNA-binding disruption – biochemical, fluorescence polarization, cherry-picked samples, dose response (AID 504725).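 Also: fluorescence polarization of a labeled DNA duplex reporting LANA DNA binding; potency is for inhibitors that block LANA binding to the DNA.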 Also noted: species or system Human gammaherpesvirus 8.
Sequence of ORF 73 (O40947 whole entry, the tested form may be a part): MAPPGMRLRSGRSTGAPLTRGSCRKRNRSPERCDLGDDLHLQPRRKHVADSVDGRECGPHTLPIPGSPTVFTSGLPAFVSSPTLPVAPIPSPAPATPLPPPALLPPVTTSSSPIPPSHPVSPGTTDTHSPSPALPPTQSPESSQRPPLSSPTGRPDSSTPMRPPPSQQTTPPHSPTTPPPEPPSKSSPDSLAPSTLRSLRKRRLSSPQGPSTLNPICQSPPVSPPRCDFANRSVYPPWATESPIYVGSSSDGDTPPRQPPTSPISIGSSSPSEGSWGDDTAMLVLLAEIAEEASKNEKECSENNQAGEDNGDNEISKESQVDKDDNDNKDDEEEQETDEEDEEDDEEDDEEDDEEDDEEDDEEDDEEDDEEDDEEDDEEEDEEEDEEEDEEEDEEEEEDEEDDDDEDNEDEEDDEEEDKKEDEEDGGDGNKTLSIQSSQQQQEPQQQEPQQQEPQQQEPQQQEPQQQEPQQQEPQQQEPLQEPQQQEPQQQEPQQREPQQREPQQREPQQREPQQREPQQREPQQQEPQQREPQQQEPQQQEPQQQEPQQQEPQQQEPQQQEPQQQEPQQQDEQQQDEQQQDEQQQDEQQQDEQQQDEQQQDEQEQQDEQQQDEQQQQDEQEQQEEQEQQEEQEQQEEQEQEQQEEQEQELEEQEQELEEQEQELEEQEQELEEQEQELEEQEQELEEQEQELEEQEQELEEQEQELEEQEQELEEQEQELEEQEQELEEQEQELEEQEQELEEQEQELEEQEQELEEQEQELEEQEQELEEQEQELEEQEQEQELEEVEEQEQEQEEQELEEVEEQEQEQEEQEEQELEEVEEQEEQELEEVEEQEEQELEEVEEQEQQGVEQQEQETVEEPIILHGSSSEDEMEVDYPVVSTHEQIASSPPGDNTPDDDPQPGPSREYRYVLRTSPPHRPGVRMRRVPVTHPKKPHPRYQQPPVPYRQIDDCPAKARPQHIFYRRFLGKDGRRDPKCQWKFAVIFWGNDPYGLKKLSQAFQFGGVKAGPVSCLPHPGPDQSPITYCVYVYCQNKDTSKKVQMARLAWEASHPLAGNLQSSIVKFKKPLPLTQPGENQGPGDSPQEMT
A short description of assay [6]: HIV-1 AD8 envelope cell-cell fusion blockers – cherry-pick, dose response (AID 652062).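 Also: luciferase signal from cell-cell fusion driven by HIV-1 clade B AD8 Env; potency is for inhibitors of fusion seen as a drop in luminescence.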 It counts as functional, cell-based.
Assay [7] in a line: loss of viability in HepG2 cells – cell-based, CellTiter-Glo, cherry-picked, cytotoxicity control for Shn3 inhibitor project, dose response (AID 624134). It counts as functional.
The nature of assay [8]: reduction of Shn3 3'UTR-driven luciferase in osteoblasts – cell-based, Clone20 osteoblasts, firefly luciferase, cherry-picked, dose response (AID 624132).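 Also: firefly luciferase luminescence from reporter carrying the Shn3 3'UTR in osteoblasts.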 It counts as functional.
The test system of assay [9] is INS1. Kind of assay: INS-1E survival protection against cytokine death – cell-based, luminescence, retest, dose response (AID 449756).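 Also: cell death triggered by IL-1 beta plus TNF-alpha plus IFN-gamma mixture; protective hits raise ATP signal compared with cytokine alone wells.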 It counts as functional. The settings on record: Rattus norvegicus.
Assay [10] in a line: cells. It counts as functional, cell-based. The settings on record: HEK-CNG.
The subject of assay [11] is Jurkat. The experiment in a line: blockers of NF-kB activation in T cells – Jurkat, luciferase reporter, luminescence, B- and T-cell, dose response (AID 489004).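 Also: NF-kB luciferase reporter Jurkat cells stimulated with PMA plus ionomycin.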 It counts as functional, cell-based. The settings on record: Homo sapiens.
Assay [12] is described as follows: blockers of HIV-1 ZM109 envelope-driven cell-cell fusion – HeLa effector, CEM target cells, luciferase, cherry-pick, dose response (AID 652058).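 Also: luciferase signal from HIV-1 Env mediated cell-cell fusion of effector and target cells.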 It counts as functional, cell-based.
A short description of assay [13]: HEK-293T viability loss, compound-treated – cell-based, uHTS hits, cytotoxicity control for B/T-cell NF-kB inhibitor project, dose response (AID 489019).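 Also: IC50 reflects cytotoxicity as loss of cell viability.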 It counts as functional.
A short description of assay [14]: non-specific 3'UTR reporter inhibition in Clone20-Shn3RL – cell-based, Renilla luciferase, cherry-picked, counter-screen for Shn3 inhibitor project, dose response (AID 624133). It counts as functional.
Assay [15] addresses T1, Galanin receptor type 3 (Homo sapiens, UniProt O60755).
T1 sequence (O60755 whole entry): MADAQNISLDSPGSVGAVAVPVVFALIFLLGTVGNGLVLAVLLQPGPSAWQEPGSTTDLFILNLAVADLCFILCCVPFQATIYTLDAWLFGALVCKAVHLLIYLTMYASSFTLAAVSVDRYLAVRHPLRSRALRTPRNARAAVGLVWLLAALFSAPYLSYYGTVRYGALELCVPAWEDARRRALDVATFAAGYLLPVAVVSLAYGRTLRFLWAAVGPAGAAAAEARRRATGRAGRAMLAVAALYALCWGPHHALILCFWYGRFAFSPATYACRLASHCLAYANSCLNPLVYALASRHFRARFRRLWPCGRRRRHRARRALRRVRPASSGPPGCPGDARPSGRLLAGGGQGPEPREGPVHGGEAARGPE
The experiment in a line: Fluorescence-based cell-based primary high throughput dose response assay to identify antagonists of the Galanin Receptor 3 (GalR3). It counts as functional.

For assay [16], the target named is Cytochrome P450 3A4 (Homo sapiens, UniProt P08684). Particulars: Potency.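 Also: confirmatory qHTS run detecting inhibitors and substrates of CYP3A4.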
Sequence of Cytochrome P450 3A4 (P08684 whole entry): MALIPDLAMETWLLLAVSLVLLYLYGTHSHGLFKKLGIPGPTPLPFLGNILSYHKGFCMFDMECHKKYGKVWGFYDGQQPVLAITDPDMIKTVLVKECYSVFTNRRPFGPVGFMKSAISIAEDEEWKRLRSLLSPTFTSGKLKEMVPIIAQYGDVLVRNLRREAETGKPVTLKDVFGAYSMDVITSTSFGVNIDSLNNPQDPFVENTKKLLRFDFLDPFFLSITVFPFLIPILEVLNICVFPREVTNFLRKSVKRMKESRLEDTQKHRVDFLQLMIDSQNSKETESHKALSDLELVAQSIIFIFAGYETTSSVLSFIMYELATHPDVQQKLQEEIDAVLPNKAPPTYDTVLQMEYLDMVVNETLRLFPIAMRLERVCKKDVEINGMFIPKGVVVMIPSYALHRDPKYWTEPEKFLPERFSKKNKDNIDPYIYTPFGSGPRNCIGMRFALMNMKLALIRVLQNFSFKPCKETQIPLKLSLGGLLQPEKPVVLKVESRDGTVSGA
Assay [17] concerns the target Voltage-gated inwardly rectifying potassium channel KCNH2 (Homo sapiens, UniProt Q12809). The settings on record: Potency.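 Also: confirmatory quantitative high-throughput screen measuring inhibition of hERG channel activity.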
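For EC50 in this document: target is galanin receptor GalR3 read with a cAMP biosensor in HEK293 cells.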

Sequence of Protein Rev (P04618 whole entry): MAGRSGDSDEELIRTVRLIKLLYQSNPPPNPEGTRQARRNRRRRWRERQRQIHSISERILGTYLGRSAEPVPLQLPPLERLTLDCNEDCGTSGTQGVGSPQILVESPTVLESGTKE
Sequence of UDP-galactopyranose mutase (P9WIQ1 whole entry): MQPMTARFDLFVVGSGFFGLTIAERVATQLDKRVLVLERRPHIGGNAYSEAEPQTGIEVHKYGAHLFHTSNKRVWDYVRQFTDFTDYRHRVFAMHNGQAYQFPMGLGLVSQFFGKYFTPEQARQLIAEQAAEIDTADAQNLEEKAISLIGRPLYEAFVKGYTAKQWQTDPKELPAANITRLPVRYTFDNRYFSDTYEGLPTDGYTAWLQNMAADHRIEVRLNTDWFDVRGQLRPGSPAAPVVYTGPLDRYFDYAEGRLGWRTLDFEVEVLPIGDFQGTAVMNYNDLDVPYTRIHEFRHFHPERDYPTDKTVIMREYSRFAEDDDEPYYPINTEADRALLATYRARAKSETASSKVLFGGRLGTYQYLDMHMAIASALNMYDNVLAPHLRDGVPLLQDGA
Sequence of Voltage-gated inwardly rectifying potassium channel KCNH2 (Q12809 whole entry): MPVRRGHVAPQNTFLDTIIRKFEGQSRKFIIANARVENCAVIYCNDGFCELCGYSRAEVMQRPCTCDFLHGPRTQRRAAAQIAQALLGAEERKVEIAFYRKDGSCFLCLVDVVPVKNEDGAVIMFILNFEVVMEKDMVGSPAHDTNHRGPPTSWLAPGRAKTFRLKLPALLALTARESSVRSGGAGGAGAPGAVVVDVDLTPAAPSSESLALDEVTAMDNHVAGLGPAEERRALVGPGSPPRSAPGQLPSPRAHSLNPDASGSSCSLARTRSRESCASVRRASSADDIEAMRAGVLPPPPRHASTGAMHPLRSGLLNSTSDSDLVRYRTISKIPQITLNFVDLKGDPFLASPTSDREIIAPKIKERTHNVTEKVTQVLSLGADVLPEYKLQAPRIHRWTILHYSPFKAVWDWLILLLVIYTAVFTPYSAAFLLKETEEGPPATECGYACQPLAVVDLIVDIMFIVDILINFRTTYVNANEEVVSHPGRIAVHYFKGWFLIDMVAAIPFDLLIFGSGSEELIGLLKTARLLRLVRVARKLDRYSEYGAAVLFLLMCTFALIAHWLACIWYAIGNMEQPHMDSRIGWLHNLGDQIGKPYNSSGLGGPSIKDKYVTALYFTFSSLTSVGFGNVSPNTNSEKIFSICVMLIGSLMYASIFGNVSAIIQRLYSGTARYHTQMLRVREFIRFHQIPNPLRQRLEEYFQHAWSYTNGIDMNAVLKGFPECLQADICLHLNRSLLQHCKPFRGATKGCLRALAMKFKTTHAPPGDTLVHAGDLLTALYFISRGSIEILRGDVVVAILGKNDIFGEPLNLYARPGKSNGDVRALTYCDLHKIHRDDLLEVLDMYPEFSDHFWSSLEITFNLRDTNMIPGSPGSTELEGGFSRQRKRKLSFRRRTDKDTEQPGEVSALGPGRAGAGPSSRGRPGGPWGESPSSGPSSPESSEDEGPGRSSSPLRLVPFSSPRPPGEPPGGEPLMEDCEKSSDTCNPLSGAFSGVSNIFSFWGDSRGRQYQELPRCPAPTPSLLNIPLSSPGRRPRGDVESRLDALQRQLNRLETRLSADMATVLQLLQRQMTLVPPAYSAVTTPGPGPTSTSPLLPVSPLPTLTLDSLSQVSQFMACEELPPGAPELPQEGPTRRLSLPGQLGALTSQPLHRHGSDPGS
Sequence of Female germline-specific tumor suppressor gld-1 (Q17339 whole entry): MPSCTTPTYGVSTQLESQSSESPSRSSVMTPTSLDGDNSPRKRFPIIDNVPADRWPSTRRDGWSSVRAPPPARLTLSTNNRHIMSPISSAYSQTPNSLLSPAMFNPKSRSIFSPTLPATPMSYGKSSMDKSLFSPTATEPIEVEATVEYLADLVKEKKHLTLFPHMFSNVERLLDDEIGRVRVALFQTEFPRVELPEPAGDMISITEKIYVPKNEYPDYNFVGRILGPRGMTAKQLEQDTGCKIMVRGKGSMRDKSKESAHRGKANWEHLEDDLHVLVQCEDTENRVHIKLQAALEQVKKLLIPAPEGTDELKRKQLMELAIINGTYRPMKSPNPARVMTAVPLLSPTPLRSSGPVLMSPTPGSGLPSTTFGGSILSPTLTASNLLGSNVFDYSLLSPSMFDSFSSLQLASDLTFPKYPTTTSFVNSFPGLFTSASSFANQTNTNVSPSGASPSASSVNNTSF

Regarding `Nc1ccc2nonc2c1[N+](=O)[O-]`, the IC50 in [1] is 0.69 µM (active); in assay [2], 0.248 µM (active). Further, the AC50 in [3] is 7.99 µM (active); in assay [4], 7.95 µM (active); in [5], 8.03 µM (active).
In the case of `COc1cc(CSc2nnnn2-c2ccc(C)cc2)cc(OC)c1OC`, the AC50 is 4.54 µM (active) in assay [6]; 2.51 µM (active) in [7]; 1.02 µM (active) in assay [8]; 2.98 µM (active) in assay [9]; 4.94 µM (active) in assay [12]; 2.16 µM (active) in [14]. The EC50 in assay [10] was > 29.9 µM (inactive). Further, the values for the IC50 in assay [11], in [13] and in assay [15] were > 80 µM (inactive), > 80 µM (inactive) and 1.22 µM (active), respectively.
Regarding `Clc1ccc(C(Cl)(Cl)Cl)c(Cl)c1`, the AC50 in [16] was 31.6 µM (inconclusive); in [17] it was 20 µM (inconclusive).
